These results are taken from the METLIN SMRT retention time set (Domingo-Almenara et al. 2019).

The data set is described as follows: gradient 5% acetonitrile 3 min, to 50% in 2 min, to 85% in 15 min, held 3 min, 100 µL/min. To be noted: column: Zorbax Extend-C18 2.1 x 50 mm; eluents: water / acetonitrile, 0.1% formic acid. The method in brief: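 Pure standards were analyzed in mixtures of ~100 molecules using HPLC coupled to a quadrupole time-of-flight mass spectrometer, in both positive and negative ionization mode. Separation used a Zorbax Extend-C18 column (2.1 × 50 mm, 1.8 μm) at 100 μL/min, with water and acetonitrile each containing 0.1% formic acid. Dead and dwell volumes were 40 μL and 900 μL, and data were collected over 3 months. Retention time was read from computationally picked adduct peaks, each inspected manually.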
In turn, `O=C(CSc1ncc(-c2ccccc2)[nH]1)Nc1nc(-c2ccc(C3CCCCC3)cc2)cs1` registered an RP-LC retention time of 1420 s.
On to `COc1cccc(S(=O)(=O)N2CCc3nc(-c4ccccc4)ncc3C2)c1`, for which the RP-LC retention time was 1050 s.
Next, `CCCNC(=O)C1CCN(c2cncnc2N2CCCCC2)CC1`: 620 s; `O=C(Nc1ccc2c(c1)CCC2)C1CC(=O)N(CCc2c[nH]c3ccc(Cl)cc23)C1` (stereo not drawn): 921 s; `Cn1c(=O)n(C)c2cc(CNCC(O)c3ccccc3)ccc21` (stereo not drawn): 569 s.
Consider `CN1CCN(C(=O)C2CCN(c3nc4ccc(-c5ccsc5)nc4s3)CC2)CC1`, for which the RP-LC retention time was 651 s.
`COc1cccc(C(=O)CSc2ccc(NC(=O)C3CC3)nn2)c1` registered an RP-LC retention time of 797 s.
The compound `CCn1nc(C(=O)Nc2nnc(-c3cc4ccccc4o3)o2)cc1C` registered an RP-LC retention time of 770 s.
The compound `Cc1nc(NC2=NCN(Cc3ccc4c(c3)OCO4)CN2)nc2ccccc12` gave an RP-LC retention time of 707 s.
In turn, `Cc1ccc(F)cc1S(=O)(=O)N1CCc2c(c(-c3nnc(-c4ccccc4F)o3)nn2C)C1` came in with an RP-LC retention time of 981 s.
Next, `Cc1ccc(CN2CCN(C3CCN(S(=O)(=O)c4ccc(F)c(F)c4)CC3)C(=O)C2=O)cc1`: 880 s; `Cc1sc(-c2noc(C3CCC3)n2)cc1S(=O)(=O)N1CCC(C(=O)NCc2ccco2)CC1`: 1010 s; `O=C(NCCS(=O)(=O)N1CCc2ccccc2C1)C1CC1`: 695 s.
For `CCCn1ccc2sc(C)c(C(=O)N3CCN(c4ccccc4)CC3)c2c1=O`, the RP-LC retention time was found to be 849 s.
The compound `O=C(NCc1ccc(F)cc1)NCc1cccn1Cc1cccc(F)c1` registered an RP-LC retention time of 680 s.
For the compound `CC(C)NC(=O)CCNc1c(-c2ccc(F)cc2)nc2cnccn12`, the RP-LC retention time came out at 616 s.
Next, `COc1ccc(Br)c(C(=O)NCC#CCN(C(C)C)C(C)C)c1`: 567 s; `Cc1cc(C)c2sc(N3CCN(C(=O)C4CCCN(S(C)(=O)=O)C4)CC3)nc2c1` (stereo not drawn): 787 s; `CCc1nc(OCC(=O)Nc2ccc(C)cc2Br)c2ccccc2n1`: 895 s.
Compound `CCOc1ccc(-c2noc(Cn3c(=O)n(CC4CCCO4)c(=O)c4ccccc43)n2)cc1OC` (stereo not drawn) showed an RP-LC retention time of 957 s.
With `CCOC(=O)C1CCN(C(=O)c2cn(-c3cc(N4CCC(C)CC4)ncn3)cn2)CC1`, the RP-LC retention time is 941 s.
In turn, `CN(CC1CCOC1)C(=O)Nc1cccc(C(F)(F)F)c1` (stereo not drawn) gave an RP-LC retention time of 784 s.
Next, `Cc1c(Cl)cccc1NC(=O)N1CCc2c(c(COc3ccccc3)nn2C)C1`: 891 s; `CCC(C)NC(=O)c1nc(-c2ccnc(N3CCCCCC3)c2)no1` (stereo not drawn): 708 s; `COc1ccc2c(c1)C1(CCN(C(=O)Nc3cccc(C)c3)C1)C(=O)N2` (stereo not drawn): 730 s.
Next, `O=C(N[C@H]1C[C@@H]2C[C@H]1CN2C(=O)Nc1ccc2c(c1)CCC2)c1ccccc1`: 829 s; `CCCCOc1ccc(NC(=O)c2oc3ccc(C)cc3c2C)c2cccnc12`: 923 s; `Cc1ccc(CNC(=O)C2(C)CN(S(C)(=O)=O)CC(=O)N2c2ccc(C(C)C)cc2)cc1` (stereo not drawn): 935 s.
Next, `Cc1cc(C)cc(NC(=O)C2CCN(Cc3cnn(-c4ccccc4)c3-n3cccc3)CC2)c1`: 794 s.
The compound `Cc1coc2c(C)c3oc(=O)c(CCC(=O)NCCc4c[nH]c5ccccc45)c(C)c3cc12` registered an RP-LC retention time of 964 s.
Take `CCOC(=O)c1ccc(Nc2ncnc3c2ncn3CC)cc1`: the RP-LC retention time came to 760 s.
As for `COC(=O)c1ccc(CSc2nnc(CNC(=O)c3cccc([N+](=O)[O-])c3C)o2)o1`, the RP-LC retention time was 732 s.
For `Cc1ccc(Nc2c(-c3cccc(O)c3)nc3cnccn23)cc1Cl`, the RP-LC retention time amounted to 829 s.
Compound `CC(Oc1ccccc1)c1nc(-c2ccc3c(c2)nnn3CCC(=O)N2CCCC2)no1` (stereo not drawn) yielded an RP-LC retention time of 899 s.
In turn, `COc1ccc(S(=O)(=O)N2CCC(c3noc(-c4ccccc4C)n3)CC2)cc1` registered an RP-LC retention time of 1150 s.
Take `O=C(NCCc1ccccc1)C1CCN(C(=O)C2Sc3ccccc3NC2=O)CC1` (stereo not drawn): the RP-LC retention time turned out to be 740 s.
Next, `Cc1cc(C)cc(NC(=O)C2CCN(S(=O)(=O)c3c(C)[nH]c(C)c3C(=O)N3CCCC3)CC2)c1`: 695 s; `Oc1ccc(-c2ccc(F)cc2)cc1CNC1CCCCC1`: 712 s; `Cc1nc(CCNC(=O)C2CCN(S(=O)(=O)c3ccc(Cl)cc3)CC2)cs1`: 755 s.
`COc1ccc(-c2ncccc2CNS(=O)(=O)c2ccc(Br)cc2)cc1`: the RP-LC retention time was found to be 733 s.
`CCN(CC)C(=O)c1cc(=O)[nH]c2c(C)cccc12` registered an RP-LC retention time of 657 s.
On to `Cc1ccc(CNC(=O)N2CCCC2c2cc(C)on2)cc1` (stereo not drawn), for which the RP-LC retention time turned out to be 798 s.
As to `CC(C)NC(=O)C(=O)NCC(c1ccc2c(c1)CCCN2C)N1CCCCC1` (stereo not drawn), the RP-LC retention time turned out to be 671 s.
Regarding `O=C(NCCc1csc(-c2ccccc2)n1)c1cccs1`, the RP-LC retention time came to 860 s.
In turn, `CCCCC(=O)N1CCCN(C2=NS(=O)(=O)C(c3ccccc3)=C2C)CC1` registered an RP-LC retention time of 793 s.
`COc1ccc(C(=O)N2C[C@@H]3C[C@H]2C[C@@H]3NS(=O)(=O)c2ccccc2)cn1`: the RP-LC retention time was determined as 716 s.
As for `COc1cccc(CNC(=O)C2CCN(Cc3cn(C)c4ccc(Cl)cc34)CC2)c1`, the RP-LC retention time is 700 s.
The compound `O=S(=O)(Nc1cccc(-c2cn3cccnc3n2)c1)c1ccc(Br)cc1` yielded an RP-LC retention time of 769 s.
Next, `c1cncc(CN2CCc3c(sc4ncnc(N5CCOCC5)c34)C2)c1`: 649 s; `COc1cc(-c2noc(-c3nn(-c4ccc(C)c(C)c4)ccc3=O)n2)cc(OC)c1OC`: 928 s.
Compound `Cc1cc(=O)n(CC(=O)Nc2ccc(F)c(F)c2)c(N2CCCCC2)n1` returned an RP-LC retention time of 700 s.
Next, `COC(=O)c1cc(S(=O)(=O)N2CCCC2C(=O)Nc2cc(OC)cc(OC)c2)cn1C` (stereo not drawn): 867 s.
The compound `CCc1ccc(NS(=O)(=O)c2cc3c4c(c2)CCC(=O)N4CCC3)cc1` displayed an RP-LC retention time of 906 s.
Take `Cc1ccc(C)c(NC(=O)CSc2nccc(N3CCN(c4cc(C)ccc4C)CC3)n2)c1`: the RP-LC retention time amounted to 989 s.
Compound `Cc1ccc(NC(=O)Nc2ccc3nc(N4CCN(C)CC4)cc(C)c3c2)c([N+](=O)[O-])c1` came in with an RP-LC retention time of 624 s.
Next, `O=c1n(Cc2cccc(Cl)c2)nc2ccc(S(=O)(=O)N3CCCCCC3)cn12`: 1040 s.
As to `CCn1c(=O)c(C)nc2cc(-c3noc(-c4ccc(F)c(F)c4)n3)ccc21`, the RP-LC retention time is 1150 s.
For the compound `COC(=O)c1c(C)[nH]c(C(=O)N2CCC(CC(=O)N3CCN(c4ccc(OC)cc4)CC3)CC2)c1C`, the RP-LC retention time came out at 702 s.
